# Literature values as cited in patent US20060078922A1, “Novel purified polypeptides from haemophilus influenzae” (Affinium Pharmaceuticals, Inc., priority 2003, published 2006).
# Target: phosphopantetheine adenyltransferase (Escherichia coli, UniProt P0A6I6)
# Details: qualitative statement, species not given
# phosphopantetheine adenyltransferase, sequence (P0A6I6 whole entry): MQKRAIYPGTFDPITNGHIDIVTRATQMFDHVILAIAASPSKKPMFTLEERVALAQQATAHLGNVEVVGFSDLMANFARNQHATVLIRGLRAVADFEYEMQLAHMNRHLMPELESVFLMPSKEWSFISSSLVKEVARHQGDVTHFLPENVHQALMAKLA
smiles,measurement,value
CC(C)(COP(=O)(O)OP(=O)(O)OC[C@H]1O[C@@H](n2cnc3c(N)ncnc32)[C@H](O)[C@@H]1OP(=O)(O)O)[C@@H](O)C(=O)NCCC(=O)NCCS [Coenzyme-A],inhibition of phosphopantetheine adenyltransferase,known to inhibit
